From patent US9580487B2, “Method of treating stomach or bowel-related disorders by administering glucagon-like-peptide-2 (GLP-2) analogues” (Zealand Pharma A/S, priority 2005, dated 2017)
“Also recorded” adds a separate entry of the source. No end group written: not given here.

Legend:
[1] = tested on: Sprague-Dawley rats treated with 5-Fluorouracil (5-FU); experiment: 5-FU-induced small intestinal atrophy and diarrhea in SD rats; format: in vivo
Procedure: FIG. 10 is a set of graphs showing effects of compound 1846 (SEQ ID NO:34) (16, 80 and 400 nmol/kg/d; s.c., n=6/dose group) in male Spague-Dawley rats treated with the cytostatic drug 5-Fluorouracil (5-FU). Compound 1846 (SEQ ID NO:34) was administered for 3 days prior to and for 4 days together with 5-FU (75 mg/kg, i.p. daily). Results were compared with responses in control animals treated with vehicle (saline) or 5-FU alone. Saline and 5-FU controls are also shown. […] Values are means±SEM. * P<0.05, relative to 5-FU alone.
FIG. 11 is a set of graphs showing the therapeutic effect of compound 1846 (SEQ ID NO:34) on diarrhea induced by treatment with the cytostatic drug 5-fluorouracil (5-FU). Rats were treated with 5-FU for 4 days with 75 mg/kg once daily (days 1-4); (n=40 rats). Half of the animals received additional treatment with compound 1846 (SEQ ID NO:34) (400 nmol/kg s.c. once daily) during the last 3 days prior to (days −3 to −1) and during 4 days of 5-FU treatment (days 0 to 3). Rats were observed twice daily (morning and evening) to determine whether the animal had diarrhea and the severity of the diarrhea was scored according to this scale: (0) no diarrhea; (1) mild—fecal staining around the anus; (2) moderate—fecal staining on the hind limbs and tail; and (3) severe—fecal staining on the front limbs and abdomen. On day 5, about 70% of Sprague Dawley rats that received 5-FU alone had developed diarrhea (FIG. 11A) while only 30% of the rats that were co-treated with compound 1846 (SEQ ID NO:34) developed diarrhea (FIG. 11B).
The effect of the clinical candidate, 1846 (SEQ ID NO:34), on 5-FU-induced small intestinal atrophy and diarrhea was investigated in SD rats. We have previously shown that i.p. administration of 75 mg/kg 5-FU once daily for four days induces significant small intestinal atrophy and diarrhea in SD rats. 1846 (SEQ ID NO:34) (16, 80 and 400 nmol/kg/d; […]) was administered twice daily for three days prior to 5-FU and for four days together with 5-FU administration. 5-FU controls and PBS controls were included in the study. […]

Sprague Dawley rats = experiment: Crypt-villus length and muscularis thickness in the small intestine of SD rats; format: in vivo
Procedure: FIG. 12 is a set of graphs showing the effect of compound 1846 (SEQ ID NO:34) on epithelial crypt-villus height (FIG. 12A) and muscular thickness (FIG. 12B) in the jejunum (i.e., mid section of the small intestine). Sprague Dawley rats were treated intravenously with compound 1846 (SEQ ID NO:34) (0.62, 3.41 or 6.2 mg/kg once daily) for 5 days (n=6/dose group). Then the animals were sacrificed and small intestinal biopsies (1 cm) were collected 25 cm distal from the pyloric sphincter. The biopsies were fixed, embedded in paraffin, sectioned and stained with haematoxylin and eosin. Stained sections were examined under a microscope and crypt depth, villus height, crypt-villus length and muscularis thickness measured. […] Values are means±SEM. * P<0.05, relative to vehicle controls (0 mg/kg/d).
The effect of the clinical candidate, 1846 (SEQ ID NO:34), on crypt-villus length and muscularis thickness in the small intestine of SD rats was investigated. 1846 (SEQ ID NO:34) (0.62, 3.41 or 6.2 mg/kg/day, n=6 rats/dose group) was administered as an i.v. bolus, once daily for five consecutive days. Twenty-four hours after the last dose had been administered the rats were sacrificed and a 1 cm biopsy was excised from the jejunum (30 cm distal from the gastric duodenal junction) and from the ileum (30 cm proximal from the ileocaecal junction) for histological processing.

Substance: [Gly2, Glu3, Ser8,11, Leu10, Ala16,24,28]hGLP-2(1-33)-(Lys)6-NH2 (HGEGSFSSELSTILDALAARDFIAWLIATKITDKKKKKK-NH2) [Compound 1846]
- Rats that developed diarrhea on day 5 ([1]; 400 nmol/kg s.c. with 5-FU 75 mg/kg, 5-FU alone about 70%): 30%
- 5-FU-induced small intestinal atrophy (SI-BW, SI length) in rats ([1]; 16, 80 and 400 nmol/kg/d s.c., 3 days prior to and 4 days with 5-FU 75 mg/kg i.p. daily): prevented 5-FU-induced small intestine atrophy; also recorded: dose-dependently prevented 5-FU induced small intestinal atrophy and maintained SI-BW and SI length at levels similar to the controls
- Incidence and severity of diarrhea ([1]; highest dose (400 nmol/kg), rats administered 5-FU): decreased the incidence and severity of diarrhea
- Muscular thickness of the jejunum (Sprague Dawley rats; 0.62, 3.41 or 6.2 mg/kg i.v. once daily for 5 days): no effect on the muscular thickness of the jejunum
- Crypt-villus length (Sprague Dawley rats; 0.62, 3.41 or 6.2 mg/kg i.v. once daily for 5 days, jejunum (and ileum)): dose-dependent increases in crypt-villus length; also recorded: dose-dependently increased mean crypt-villus length in the jejunum and ileum
- Muscularis thickness in the ileum (Sprague Dawley rats; 0.62, 3.41 or 6.2 mg/kg/day i.v. for five days): dose-dependently increased
